# Measured values: patent US20100150948A1, “MATERIALS AND METHODS FOR IMPROVED IMMUNOGLYCOPROTEINS” (TRUBION PHARMACEUTICALS, INC., priority 2006, published 2010)
# Tests used:
# [1] = biological target: T1, CD37 cell surface receptor (Homo sapiens, UniProt P11049); assay: Binding of TRU-016 to B and non-B lymphocytes of human PBMC, two-color flow cytometry
# T1 construct: Human PBMCs are isolated over LSM density gradients; endogenous in cells; host or cells: human PBMC
# T1 sequence (P11049 1-281): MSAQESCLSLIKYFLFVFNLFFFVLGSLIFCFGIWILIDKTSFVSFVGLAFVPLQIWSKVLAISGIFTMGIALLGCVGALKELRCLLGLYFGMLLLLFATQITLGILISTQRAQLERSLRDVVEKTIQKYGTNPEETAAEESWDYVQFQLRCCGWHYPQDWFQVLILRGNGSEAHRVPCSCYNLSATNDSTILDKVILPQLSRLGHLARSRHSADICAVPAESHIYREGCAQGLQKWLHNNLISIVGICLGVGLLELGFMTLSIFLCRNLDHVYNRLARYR
# Method: Experiments may be performed to confirm that the binding specificity of the parent antibody to the CD37 cell surface receptor is preserved in TRU-016. Human PBMCs are isolated over LSM density gradients and incubated with unconjugated TRU-016 and PE-conjugated anti-human CD19. Cells are washed and incubated with 1:100 FITC GAH IgG (Fc specific) for 45 minutes on ice. Cells are washed and analyzed by two-color flow cytometry on a FACsCalibur instrument using Cell Quest software. Cells are gated for B lymphocytes or non-B lymphocytes by CD19 staining.
# [2] = parameters: species or system BALB/c mice; settings: mouse, in vivo, iv, 200 ug
# Method: Female BALB/c mice were injected i.v. with 200 μg of TRU-016 test protein (TRU-016 produced by untreated CHO cells or by CHO cells treated with 200 μM DMJ, […] or 200 μM castanospermine) at time 0. Serum samples were collected (3 mice per time point) at 15 min, 2, 6, 24, 48, 72, 96, and 192 hours post injection. The serum concentration of each TRU-016 test sample was determined in a FACS-based binding assay using the CD37+ Ramos human cell line. CD37+ Ramos cells (5×10^5 cells/well) were incubated in 96 well flat bottom plates along with the serum sample to be tested. Spiked serum samples were used for the standard curves. Cells were incubated at 4° C. for an hour and washed before addition of the detection antibody. Binding of TRU-016 test protein to CD37+ Ramos cells was detected using a fluorescein-conjugated goat anti-human IgG Fcγ fragment-specific antibody. Standard curves were used to construct a binding curve as a function of antigen concentration. Briefly, standard curves consisted of various known concentrations of the TRU-016 test protein spiked into normal mouse serum diluted 1:20 in FACS buffer. The standard curves were run in duplicate on each plate. Mean fluorescence intensities (MFI) from the FACS analysis were imported into Softmax Pro software and were used to calculate serum concentrations of the TRU-016 test protein.
# [3] = tested on: Ramos cells; assay: Ramos tumor model in nude mice; assay type: in vivo; settings: TRU-016 from CHO cells treated with 200 μM DMJ, 10 μM kifenunsine or 200 μM castanospermine; 200 μg i.v.
# Method: Nude mice are administered 5×10^6 Ramos cells subcutaneously on day 0 and injected intravenously with 200 μg control human IgG or TRU-016 test protein produced by CHO cells treated with 200 μM DMJ, 10 μM kifenunsine or 200 μM castanospermine on days 0, 2, 4, 6, and 8. Mice typically develop tumors within 6 days and die shortly thereafter. Tumors are measured three times weekly with digital calipers and LabCat software, and tumor volume is calculated as […]. Body weight is also determined once a week.
# Mice are sacrificed when the tumor reaches 1500 mm^3 in size (1200 mm^3 on Fridays). Mice are also sacrificed if ulceration of a tumor occurs, the tumor inhibits the mobility of animal, or if weight loss equals or exceeds 20%.
# [4] = tested on: BJAB B cells; assay: ADCC activity, 51Cr release, PBMC effector cells; assay type: cell-based, human; settings: for ADCC activity (% specific killing) of TRU-015 purified protein: 0, 2, 5, 10, 30 or 100 μg/mL castanospermine in culture media
# Method: To determine the ADCC activity of purified TRU-016, labeled BJAB B cells were used as targets and human peripheral blood mononuclear cells (PBMC) as effector cells. BJAB B cells (10^7 cells) were labeled with 500 μCi/mL ^51Cr sodium chromate for 2 hours at 37° C. in IMDM/10% FBS. PBMCs were isolated from heparinized, human whole blood by fractionation over Lymphocyte Separation Media (LSM, ICN Biomedical) gradients. Reagent samples were added to RPMI media with 10% FBS and serial dilutions of each reagent were prepared. The ^51Cr labeled BJAB were added at 2×10^4 cells/well. The PBMCs were then added at 5×10^5 cells/well for a final ratio of 25:1 effectors (PBMC):targets (BJAB). Reactions were set up in quadruplicate wells of a 96 well plate. Reactions were allowed to proceed for 6 hours at 37° C. in 5% CO2 prior to harvesting and counting. CPM released was measured on a Packard TopCounNXT from 50 μl dried culture supernatant. Percent specific killing was calculated by subtracting (cpm [mean of quadruplicate samples] of sample—cpm spontaneous release)/(cpm maximal release-cpm spontaneous release) x100, and data were plotted as % specific killing versus TRU-016 concentration.
# [5] = tested on: CD37; assay: Binding of TRU-016 to CD37 expressing Daudi cells; parameters: species or system human; settings: CS 25-800 μM in culture
# Method: The cells are then incubated with a FITC-conjugated goat anti-human IgG Fc specific antibody (Caltag H 10501). This antibody will bind to the Fc region of the human IgG chain of TRU-016 bound to the cells. The antibody is diluted 1:50 in FACS buffer and 100 μL is added to each well. The plate is incubated at 4° C. in the dark for 45 minutes. Any unbound FITC-labeled antibody is removed by adding 100 μL of FACS buffer to each well, centrifuging at 250×g for 3 minutes at 15° C. followed by removal of supernatant. This is followed by a second wash with 200 μL/well FACS buffer. The cells are resuspended with 200 μL/well 2% paraformaldehyde and stored at 4° C. overnight. Each sample's bound fluorescence is measured on a BD FACSCalibur flow cytometry system and analyzed using Cell Quest Pro software (Becton Dickinson, ver 5.2). The GeoMean fluorescence intensity for each sample is plotted relative to the TRU-016 concentration. A dose response curve is generated and fit to a 4-parameter logistic (4-PL) curve using the SoftMax Pro software (Molecular Devices, ver 5.0.1). Titrations of TRU-016 are utilized to create a dose response curve of the untreated control and CS treated samples for comparison.
Molecule,TRU-016 concentration at saturation of FITC signal on the B lymphocyte (CD19 positive gate) ([1]; CD19 positive gate),mean fluorescence intensity (MFI) at saturation ([1]; CD19 positive gate),staining of the non-B lymphocyte population ([1]; non-B lymphocyte gate),effect of carbohydrate modifier on half-life or other pharmacokinetic parameters [2],mean survival time [3],tumor volume [3],"ADCC activity (% specific killing) of TRU-016 purified protein ([4]; 0, 10, 25, 50, 100 or 200 μM castanospermine in culture media)","ADCC (% specific killing) of TRU-016 purified protein ([4]; 200 μM DMJ, 10 μM kifenunsine or 200 μM castanospermine in culture media)",ADCC activity (% specific killing) of TRU-015 purified protein ([4]; PBMC from high affinity (V/V158) CD16 donors),ADCC activity (% specific killing) of TRU-015 purified protein ([4]; PBMC from low affinity (F/F158) CD16 donors),"dose response binding curves of TRU-016 to CD37 expressing cells, compared with untreated TRU-016 sample [5]"
"TRU-016: recombinant single chain protein (SMIP) that binds CD37; G28-1 binding domain, modified hinge, human IgG1 CH2 and CH3; SEQ ID NO: 2",approximately 1 μg/mL,~1000,"detectable, but very low",no significant effect,increase mean survival time,reduce tumor volume,–,–,–,–,–
O[C@H]1[C@H](O)[C@@H](O)CN2CC[C@H](O)[C@H]12 [castanospermine],–,–,–,–,–,–,dose-dependent increase,improved ADCC,dose-dependent increase,dose-dependent increase,did not alter
